Drawing on PubChem BioAssay (NCI), this text covers GI50 and TGI for 18 compounds.

Test systems include DMS 273 small cell lung; P388 leukemia; M19-MEL melanoma; HOP-18 NSCLC; DLD-1 colon; XF 498 CNS; SN12K1 renal; LXFL 529 NSCLC; BT-549 breast; P388/ADR leukemia; MDA-N; RXF-631 renal.
What all share (test): NCI tumour cell line growth inhibition, 48 h

Values joined by “and” are separate entries in the source; they are usually repeats but may differ in a detail not shown here. Equal entries are not always repeated.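 Each compound was tested at five concentrations against cells in 96-well plates for 48 hours. Here, GI50 denotes the concentration required for 50% inhibition of growth. TGI denotes the concentration required for complete inhibition of growth.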 Where a SMILES comes first, the peptide text is derived from it. [ ]: non-standard residue; d: D form. 2Nal = N[CH](Cc1ccc2ccccc2c1)C(=O)O

With `COc1ccc(/C=C\c2cc(OC)c(OC)c(OC)c2)c(O)c1O`, the GI50 is 0.303 µM in the assay with DMS 273 small cell lung; 1.42 µM in the assay with M19-MEL melanoma; 109 µM in the assay with HOP-18 NSCLC; 1.52 µM in the assay on DLD-1 colon; 2.95 µM with XF 498 CNS. The TGI in the assay with DMS 273 small cell lung was 63.1 µM; with P388 leukemia, 4.57 µM; with M19-MEL melanoma, 17.8 µM and 11.2 µM; in the assay with HOP-18 NSCLC, 185 µM; with DLD-1 colon, greater than 85.8 µM; in the assay on SN12K1 renal it was 1.08 µM. Moreover, the TGI in the assay on LXFL 529 NSCLC is 12.8 µM; with BT-549 breast it was 32.3 µM; in the assay with P388/ADR leukemia it was 23.4 µM; with MDA-N, less than 0.0304 µM.

Turning to `O=C1C(=O)N(c2cccc(C(F)(F)F)c2)C(=O)C(=O)C1c1nc2ccccc2s1`, the TGI in the assay on DMS 273 small cell lung, with M19-MEL melanoma, with HOP-18 NSCLC, in the assay with DLD-1 colon, with XF 498 CNS and in the assay on RXF-631 renal was greater than 100 µM throughout. Also, the TGI in the assay with LXFL 529 NSCLC, with BT-549 breast and in the assay with MDA-N was greater than 100 µM each time.

Turning to `CN(C)CCNC(=O)c1cccc2ncc(-c3ccccc3)nc12`, the TGI in the assay with DMS 273 small cell lung was 17.8 µM; in the assay on M19-MEL melanoma, 29.5 µM; in the assay with HOP-18 NSCLC, greater than 64.3 µM; in the assay with DLD-1 colon, 44.9 µM; in the assay with RXF-631 renal, greater than 82.5 µM; in the assay with LXFL 529 NSCLC, 53.7 µM.

`C=C1C(=O)OC2C1C(OC(=O)/C(C)=C\C)CC1(CO1)C1C(O)C=C(C)C21O` (configuration not stated): the TGI in the assay with DMS 273 small cell lung is 20 µM; with M19-MEL melanoma it was 25.4 µM; in the assay with HOP-18 NSCLC, 23.3 µM; in the assay on DLD-1 colon, 7.8 µM; in the assay on XF 498 CNS, 25.7 µM; in the assay with RXF-631 renal, 16.9 µM. In addition, in the assay on LXFL 529 NSCLC, the TGI stood at 3.42 µM.

For `NC(=Nc1nc(-c2ccccn2)cc2ccccc12)c1ccccn1`, the GI50 was 0.0231 µM with DMS 273 small cell lung; 0.199 µM with M19-MEL melanoma; 0.258 µM in the assay with HOP-18 NSCLC; 0.197 µM in the assay with BT-549 breast; 0.445 µM in the assay on MDA-N. Also, the TGI was 0.953 µM in the assay on M19-MEL melanoma; 27.1 µM in the assay on HOP-18 NSCLC; 0.378 µM in the assay with DLD-1 colon; 0.0644 µM with XF 498 CNS; 0.244 µM with RXF-631 renal; greater than 100 µM in the assay with LXFL 529 NSCLC. Moreover, the TGI in the assay on BT-549 breast and in the assay with MDA-N was greater than 100 µM throughout.

Take `COc1cc(/C=C\c2ccc(OC(C)=O)cc2)cc(OC)c1OC`: the TGI was greater than 100 µM with DMS 273 small cell lung; greater than 100 µM with M19-MEL melanoma; greater than 100 µM in the assay on DLD-1 colon; 82.9 µM in the assay on XF 498 CNS; greater than 100 µM in the assay on RXF-631 renal; greater than 100 µM in the assay on LXFL 529 NSCLC.

Take `O=C(O)CCSC(=O)Nc1ccccc1Cl`: the TGI with DMS 273 small cell lung, in the assay on M19-MEL melanoma, in the assay on HOP-18 NSCLC, in the assay on DLD-1 colon, in the assay on XF 498 CNS and with RXF-631 renal was greater than 100 µM in each case. The TGI in the assay on LXFL 529 NSCLC was greater than 100 µM.

With `OC1CCC[C@@H]1Sc1ccccc1` (some centres not stated), the TGI with DMS 273 small cell lung, in the assay on M19-MEL melanoma, in the assay with DLD-1 colon, in the assay with XF 498 CNS, in the assay on RXF-631 renal and with LXFL 529 NSCLC was greater than 100 µM throughout.

Turning to `Cn1nc(-c2ccccc2)c(C(=O)/C=C/c2ccc(F)cc2)c(N2CCOCC2)c1=O`, the TGI was 53 µM in the assay on DMS 273 small cell lung; 39 µM in the assay with M19-MEL melanoma; 37.3 µM in the assay with HOP-18 NSCLC; greater than 100 µM with DLD-1 colon; 42.7 µM in the assay with XF 498 CNS; 86.6 µM in the assay with RXF-631 renal. In the assay on LXFL 529 NSCLC, this compound had a TGI of 30.9 µM.

Regarding `C/C(CCn1[nH]c(=O)ccc1=O)=N\Nc1ccc([N+](=O)[O-])cc1[N+](=O)[O-]`, the TGI in the assay on DMS 273 small cell lung, in the assay with M19-MEL melanoma, with HOP-18 NSCLC, with DLD-1 colon, in the assay on XF 498 CNS and in the assay on RXF-631 renal was greater than 100 µM throughout. Besides, in the assay with LXFL 529 NSCLC, the TGI is greater than 100 µM.

Consider `COC(=O)C(C(=O)C(=O)Nc1ccc(OC)cc1[N+](=O)[O-])c1nc2cc(C)c(C)cc2[nH]c1=O` (configuration not stated), for which the TGI with M19-MEL melanoma, in the assay on HOP-18 NSCLC, in the assay on DLD-1 colon, with RXF-631 renal and in the assay with LXFL 529 NSCLC was greater than 100 µM throughout.

`C#CCN(N=O)C(=O)NCCCC(NC(C)=O)C(=O)NCc1ccccc1` (configuration not stated): the TGI in the assay on M19-MEL melanoma was greater than 100 µM; in the assay on HOP-18 NSCLC, greater than 100 µM; with DLD-1 colon, greater than 100 µM; in the assay with XF 498 CNS it was 84.4 µM; in the assay on RXF-631 renal, greater than 100 µM; with LXFL 529 NSCLC, greater than 100 µM.

`CN(O)C(=S)c1ccccc1`: the TGI with DMS 273 small cell lung is 4.03 µM; with M19-MEL melanoma it was 4.68 µM; with HOP-18 NSCLC, greater than 100 µM; in the assay with DLD-1 colon it was 4.52 µM; in the assay on XF 498 CNS, greater than 100 µM; with RXF-631 renal, 2.92 µM. In addition, the TGI was greater than 23 µM in the assay on LXFL 529 NSCLC, greater than 100 µM in the assay on BT-549 breast and greater than 20.5 µM in the assay with MDA-N.

Turning to `CC(C)C(NC(=O)C(CCCCN)NC(=O)C(Cc1c[nH]c2ccccc12)NC(=O)C(Cc1ccc(O)cc1)NC(=O)C(CS)NC(=O)C(N)Cc1ccc2ccccc2c1)C(=O)NC(CS)C(=O)NC(C(N)=O)C(C)O` (configuration not stated) (H-[2Nal]CYWKVCT-NH2; configuration not given here), the TGI in the assay on DMS 273 small cell lung, in the assay on M19-MEL melanoma, in the assay with HOP-18 NSCLC, in the assay on DLD-1 colon, in the assay on XF 498 CNS and in the assay on RXF-631 renal was greater than 100 µM throughout. Besides, the TGI is greater than 100 µM in the assay with LXFL 529 NSCLC and greater than 12.5 µM with MDA-N.

Turning to `NNC(=O)N/N=C1\C(=O)N(c2nccs2)C(=O)C(=O)C1c1nc2ccccc2s1` (configuration not stated), the TGI with DMS 273 small cell lung was greater than 100 µM; in the assay on M19-MEL melanoma, greater than 100 µM; in the assay on HOP-18 NSCLC, 88.5 µM; in the assay with DLD-1 colon it was greater than 100 µM; with XF 498 CNS it was greater than 100 µM; in the assay with RXF-631 renal, greater than 100 µM. This compound also had a TGI in the assay on LXFL 529 NSCLC greater than 100 µM.

On to `CCOC(=O)C1SC(=Nc2ccc(Cl)cc2C)N=C1C` (configuration not stated), for which the TGI in the assay on DMS 273 small cell lung is 66.9 µM; with M19-MEL melanoma it was 43.7 µM; with HOP-18 NSCLC it was greater than 100 µM; in the assay on DLD-1 colon it was 35.9 µM; in the assay on XF 498 CNS it was 40 µM; in the assay on RXF-631 renal, 71.4 µM. For the same compound, the TGI in the assay with LXFL 529 NSCLC was 45.6 µM.

For `COc1ccc(NC(=O)CCc2cc(C(C)(C)C)n[nH]2)cc1`, the TGI with DMS 273 small cell lung, in the assay with M19-MEL melanoma, in the assay with HOP-18 NSCLC, in the assay on XF 498 CNS, in the assay with RXF-631 renal and with LXFL 529 NSCLC was greater than 100 µM each time.

Regarding `CC(=N)N(C)O`, the TGI with M19-MEL melanoma, in the assay with HOP-18 NSCLC, in the assay on DLD-1 colon, with XF 498 CNS, in the assay on RXF-631 renal and in the assay on LXFL 529 NSCLC was greater than 100 µM in each case.
